Experimental findings from ChEMBL document CHEMBL5131375, “Recent Developments in the Use of Kinase Inhibitors for Management of Viral Infections” (J Med Chem, 2022) are described below.

In general, EC50 refers to the concentration at which the effect is half-maximal. Usually IC50 stands for the point on the concentration scale where inhibition reaches its midpoint. The Kd is the constant that tells how readily two partners part at equilibrium.

Molecules are shown by their SMILES.

In data set [1] the test system is Hepatitis C virus. The experiment in a line: Antiviral activity against HCV GT1b-genotype assessed as inhibition of viral replication. It counts as functional, organism-based, Hepacivirus hominis.
Data set [2] can be described thus: in vitro. As to conditions: human, Huh-7 cells.
The subject of data set [3] is Hepatitis C virus. In words: microbe, parasite or virus in culture.
The subject of data set [4] is Ebolavirus. In words: microbe, parasite or virus in culture. It counts as functional, organism-based. To be noted: Orthoebolavirus.
Data set [5] deals with Marburgvirus. In words: microbe, parasite or virus in culture. It counts as functional, organism-based. As to conditions: Orthomarburgvirus.
The nature of data set [6]: in vitro. As to conditions: chlorocebus sabaeus, vero.
The test system of data set [7] is Lassa virus. In words: microbe, parasite or virus in culture. To be noted: Mammarenavirus lassaense.
Data set [8] deals with Lassa virus. The experiment in a line: microbe, parasite or virus in culture. To be noted: Mammarenavirus lassaense, A549.
Data set [9] deals with Ebolavirus. In words: microbe, parasite or virus in culture. To be noted: Orthoebolavirus, Huh-7.
Data set [10] relates to Marburgvirus. In words: microbe, parasite or virus in culture. To be noted: Orthomarburgvirus.
Data set [11] concerns Ebolavirus. In words: microbe, parasite or virus in culture. As to conditions: Orthoebolavirus.
The test system of data set [12] is Ebolavirus. In words: microbe, parasite or virus in culture. To be noted: Orthoebolavirus. The source holds these as a separate data set.
In data set [13] the test system is Lassa virus. In words: microbe, parasite or virus in culture. As to conditions: Mammarenavirus lassaense. This is another data set of the same source.
In data set [14] the test system is Vesicular stomatitis virus. The experiment in a line: microbe, parasite or virus in culture.
Data set [15] deals with Tyrosine-protein kinase JAK2 (Homo sapiens, UniProt O60674).
Data set [16] deals with SARS-CoV-2. The experiment in a line: microbe, parasite or virus in culture. It counts as functional, organism-based. To be noted: Severe acute respiratory syndrome coronavirus 2.
In data set [17] the test system is SARS-CoV-2. In words: microbe, parasite or virus in culture. It counts as functional, organism-based. To be noted: Severe acute respiratory syndrome coronavirus 2, Huh-7.
Data set [18] in a line: in vitro. As to conditions: chlorocebus sabaeus, vero c1008.
A further data set deals with Janus Kinase (JAK) (Homo sapiens, UniProt P52333+P23458+O60674+P29597). It counts as protein assay.
Data set [19] deals with Influenza A virus. The experiment in a line: microbe, parasite or virus in culture. It counts as functional, organism-based.
Data set [20] is described as follows: in vitro. To be noted: dog, MDCK cells.
For data set [21], the system named is SARS-CoV-2. In words: microbe, parasite or virus in culture. In kind it is functional, organism-based, Vero E6. As to conditions: Severe acute respiratory syndrome coronavirus 2, Vero C1008.
Data set [22] in a line: Cytotoxicity against human A549 cells. It counts as toxicity, cell-based.
Data set [23] in a line: Volume of distribution at steady state in Beagle dog plasma at 1 mg/kg, iv at […] LC-MS/MS analysis. In kind it is ADME, organism-based, Canis lupus familiaris. As to conditions: time 0.083 hrs, read-out: Vdss.
Data set [24] in a line: Volume of distribution at steady state in CD-1 mouse plasma at 10 mg/kg, iv at […] LC-MS/MS analysis. In kind it is ADME, organism-based. To be noted: time 0.083 hrs, read-out: Vdss.
Data set [25] can be described thus: Volume of distribution at steady state in cynomolgus monkey plasma at 3 mg/kg, iv at […] LC-MS/MS analysis. As to conditions: time 0.083 hrs, read-out: Vdss. It counts as ADME, organism-based, Macaca fascicularis.
Data set [26] in a line: Volume of distribution at steady state in Han-Wistar rat plasma at 5 mg/kg, iv at […] LC-MS/MS analysis. To be noted: time 0.083 hrs, read-out: Vdss. In kind it is ADME, organism-based.
A further data set relates to Vero C1008. The experiment in a line: Cytotoxicity against African green monkey Vero E6 cells at 250 nM. It counts as toxicity, cell-based. To be noted: chlorocebus sabaeus, vero c1008, 0.25 µM.
Data set [27] has as its system Influenza A virus. In words: microbe, parasite or virus in culture. It counts as functional, organism-based. To be noted: H1N1pdm09.
Data set [28] deals with Influenza A virus. In words: microbe, parasite or virus in culture. In kind it is functional, organism-based. As to conditions: H3N2.
Another data set deals with Lyssavirus rabies. The experiment in a line: microbe, parasite or virus in culture. It counts as functional, organism-based.
Data set [29] in a line: Cytotoxicity against golden hamster BSR cells. In kind it is toxicity, cell-based, Mesocricetus auratus.
The test system of data set [30] is Influenza A virus. In words: Antiviral activity against influenza A/Regensburg/D6/2009 virus. It counts as functional, organism-based.
In data set [31] the target is Receptor tyrosine-protein kinase erbB-2 (Homo sapiens, UniProt P04626). In words: Inhibition of HER2/ErbB-2 (unknown origin).
The test system of data set [32] is Influenza A virus. In words: Antiviral activity against influenza A virus infected in human A549 cells assessed as inhibition of viral replication at 10 uM relative to control. In kind it is functional. Set-up: scale not given: the % may be the effect or the level left.
The target in data set [33] is AP2-associated protein kinase 1 (Homo sapiens, UniProt Q2M2I8).
Sequence of AP2-associated protein kinase 1 (Q2M2I8 whole entry): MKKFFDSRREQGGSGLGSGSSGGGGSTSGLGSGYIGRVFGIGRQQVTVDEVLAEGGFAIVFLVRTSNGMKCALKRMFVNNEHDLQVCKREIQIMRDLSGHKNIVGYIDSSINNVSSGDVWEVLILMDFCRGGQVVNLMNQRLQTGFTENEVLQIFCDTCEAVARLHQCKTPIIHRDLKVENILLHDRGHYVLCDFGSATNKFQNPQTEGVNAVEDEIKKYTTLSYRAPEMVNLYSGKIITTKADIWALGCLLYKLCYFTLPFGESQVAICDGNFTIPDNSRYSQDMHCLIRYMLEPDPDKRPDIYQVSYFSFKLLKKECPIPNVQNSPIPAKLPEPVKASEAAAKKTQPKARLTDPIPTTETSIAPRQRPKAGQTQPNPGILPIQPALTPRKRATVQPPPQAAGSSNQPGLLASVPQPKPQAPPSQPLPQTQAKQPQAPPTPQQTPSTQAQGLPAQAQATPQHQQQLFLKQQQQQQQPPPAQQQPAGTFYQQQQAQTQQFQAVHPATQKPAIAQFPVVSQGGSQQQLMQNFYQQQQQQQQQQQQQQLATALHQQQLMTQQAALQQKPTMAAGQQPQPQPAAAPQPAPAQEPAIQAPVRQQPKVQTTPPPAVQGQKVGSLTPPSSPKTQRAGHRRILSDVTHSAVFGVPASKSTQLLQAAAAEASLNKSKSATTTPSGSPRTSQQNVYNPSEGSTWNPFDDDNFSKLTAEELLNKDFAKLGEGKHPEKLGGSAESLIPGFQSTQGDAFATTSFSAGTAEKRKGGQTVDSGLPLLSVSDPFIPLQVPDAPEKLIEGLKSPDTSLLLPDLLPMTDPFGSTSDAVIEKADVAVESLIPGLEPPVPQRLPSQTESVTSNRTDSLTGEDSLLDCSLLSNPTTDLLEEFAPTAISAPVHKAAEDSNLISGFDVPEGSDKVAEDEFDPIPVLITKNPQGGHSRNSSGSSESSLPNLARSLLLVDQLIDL

Sequence of Tyrosine-protein kinase JAK2 (O60674 whole entry): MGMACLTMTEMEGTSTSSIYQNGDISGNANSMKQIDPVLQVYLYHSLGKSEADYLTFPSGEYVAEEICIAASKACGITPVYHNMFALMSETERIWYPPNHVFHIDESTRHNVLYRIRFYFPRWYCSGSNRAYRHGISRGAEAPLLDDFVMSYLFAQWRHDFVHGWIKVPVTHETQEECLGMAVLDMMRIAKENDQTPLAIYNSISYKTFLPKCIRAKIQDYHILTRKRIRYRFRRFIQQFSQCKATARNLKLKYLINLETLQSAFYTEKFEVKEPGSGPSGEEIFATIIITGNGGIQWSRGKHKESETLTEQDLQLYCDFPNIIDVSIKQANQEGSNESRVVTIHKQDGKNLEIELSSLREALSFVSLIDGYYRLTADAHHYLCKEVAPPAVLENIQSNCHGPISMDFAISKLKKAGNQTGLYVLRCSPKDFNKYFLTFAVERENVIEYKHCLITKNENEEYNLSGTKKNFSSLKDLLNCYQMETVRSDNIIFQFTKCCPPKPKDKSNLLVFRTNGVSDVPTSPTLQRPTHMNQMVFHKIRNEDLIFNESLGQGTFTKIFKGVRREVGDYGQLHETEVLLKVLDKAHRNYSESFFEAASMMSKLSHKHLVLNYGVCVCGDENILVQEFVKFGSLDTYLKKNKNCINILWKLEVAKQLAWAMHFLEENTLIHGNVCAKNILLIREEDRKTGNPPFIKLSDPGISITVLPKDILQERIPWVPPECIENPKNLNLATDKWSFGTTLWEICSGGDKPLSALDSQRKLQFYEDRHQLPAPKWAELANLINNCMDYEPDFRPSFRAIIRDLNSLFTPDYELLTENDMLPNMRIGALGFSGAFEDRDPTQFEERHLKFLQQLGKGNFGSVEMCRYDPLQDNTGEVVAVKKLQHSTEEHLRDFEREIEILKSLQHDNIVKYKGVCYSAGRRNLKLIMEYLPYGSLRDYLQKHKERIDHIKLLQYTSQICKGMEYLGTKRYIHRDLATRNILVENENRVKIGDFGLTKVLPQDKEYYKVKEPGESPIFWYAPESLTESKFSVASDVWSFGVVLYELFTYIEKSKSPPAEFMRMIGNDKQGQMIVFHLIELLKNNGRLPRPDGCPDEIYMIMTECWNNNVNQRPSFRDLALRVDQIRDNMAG
Sequence of Receptor tyrosine-protein kinase erbB-2 (P04626 whole entry): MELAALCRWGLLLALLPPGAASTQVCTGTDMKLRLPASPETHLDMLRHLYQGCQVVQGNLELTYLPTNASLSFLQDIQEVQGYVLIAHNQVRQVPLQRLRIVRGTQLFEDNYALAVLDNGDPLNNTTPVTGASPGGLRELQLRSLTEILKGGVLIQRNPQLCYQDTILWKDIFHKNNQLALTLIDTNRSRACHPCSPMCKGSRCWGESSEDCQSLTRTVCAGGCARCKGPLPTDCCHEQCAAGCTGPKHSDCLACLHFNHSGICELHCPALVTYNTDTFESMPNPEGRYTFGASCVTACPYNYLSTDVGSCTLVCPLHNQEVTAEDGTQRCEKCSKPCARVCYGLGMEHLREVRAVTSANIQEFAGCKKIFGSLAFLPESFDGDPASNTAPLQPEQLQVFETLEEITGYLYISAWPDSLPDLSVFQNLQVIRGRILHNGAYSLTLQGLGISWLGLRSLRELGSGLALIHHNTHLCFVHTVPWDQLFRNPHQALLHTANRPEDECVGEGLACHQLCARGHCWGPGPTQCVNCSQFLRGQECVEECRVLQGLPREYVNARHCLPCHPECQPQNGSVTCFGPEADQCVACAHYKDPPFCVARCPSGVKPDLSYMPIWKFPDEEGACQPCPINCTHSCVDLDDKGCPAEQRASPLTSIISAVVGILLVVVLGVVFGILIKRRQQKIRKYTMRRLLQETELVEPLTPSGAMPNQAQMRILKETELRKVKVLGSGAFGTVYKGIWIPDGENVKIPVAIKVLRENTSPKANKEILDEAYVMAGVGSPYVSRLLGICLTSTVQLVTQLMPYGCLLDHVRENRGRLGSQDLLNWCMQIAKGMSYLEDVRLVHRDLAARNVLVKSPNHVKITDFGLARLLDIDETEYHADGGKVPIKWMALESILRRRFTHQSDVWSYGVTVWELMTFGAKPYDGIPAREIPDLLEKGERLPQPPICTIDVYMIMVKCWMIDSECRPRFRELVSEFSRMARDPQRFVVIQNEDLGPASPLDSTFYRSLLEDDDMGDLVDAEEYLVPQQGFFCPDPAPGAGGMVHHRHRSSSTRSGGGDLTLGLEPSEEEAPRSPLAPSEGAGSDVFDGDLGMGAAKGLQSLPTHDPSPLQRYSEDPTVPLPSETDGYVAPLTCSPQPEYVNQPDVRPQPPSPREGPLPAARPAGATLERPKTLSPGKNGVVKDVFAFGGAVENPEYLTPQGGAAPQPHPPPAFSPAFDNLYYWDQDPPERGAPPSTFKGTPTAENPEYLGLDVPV

With `CC(C)S(=O)(=O)n1c(N)nc2ccc(/C(=N/O)c3ccccc3)cc21` [ENVIROXIME], the half-maximal effective concentration (EC50) in the data set on Hepatitis C virus [1] turned out to be 0.1 µM; in the data set with Hepatitis C virus [3] it was 0.2 µM. In the data set “in vitro [2]”, this compound yielded a CC50 of 25 µM.
As for `CN1CCC(Nc2ncc3ncnc(Nc4ccc(F)c(Cl)c4)c3n2)CC1` [FALNIDAMOL], the EC50 in the data set with Ebolavirus [4] is 1.1 µM; with Marburgvirus [5], 1.8 µM; in the data set on Lassa virus [7], 3.2 µM; in the data set with Lassa virus [8], 3.2 µM; in the data set with Ebolavirus [9] it was 1.1 µM; with Marburgvirus [10], 1.8 µM. Besides, the half-maximal effective concentration (EC50) in the data set with Ebolavirus [11] is 1.2 µM; in the data set with Ebolavirus [12], 1.6 µM; in the data set with Lassa virus [13], 7.5 µM; in [14], 30.9 µM. Besides, in the data set “in vitro [6]”, the CC50 amounted to 29.1 µM.
Regarding `Cc1cc(Nc2cc(CN3CCOCC3)c3nc(C)c(Cc4ccc(Cl)cc4F)n3n2)n[nH]1` [GANDOTINIB], in data set [15], the midpoint of inhibition, the IC50, lay at 0.003 µM.
In the data set with SARS-CoV-2 [16], `CCc1nc(C(N)=O)c(Nc2ccc(N3CCC(N4CCN(C)CC4)CC3)c(OC)c2)nc1NC1CCOCC1` [GILTERITINIB] came in with an EC50 of 0.225 µM. The same compound came in with an IC50 in the data set on SARS-CoV-2 [17] of 0.225 µM. The CC50 in the data set “in vitro [18]” was more than 0.5 µM.
For `N#CCC1CCN(c2nc(Nc3ccc(N4CCC(O)CC4)cc3)c3c(=O)[nH]ncc3n2)CC1` [GUSACITINIB], on Janus Kinase (JAK), the concentration for half-maximal inhibition (IC50) was found to be 0.005 µM.
With `CCS(=O)(=O)Nc1ccc2c(c1)/C(=C(/Nc1ccc(CN3CCCCC3)cc1)c1ccccc1)C(=O)N2` [HESPERADIN], the 50% effective concentration (EC50) with Influenza A virus [19] came out at 0.28 µM. This compound showed a CC50 in the data set “in vitro [20]” of 21.3 µM.
In the data set on SARS-CoV-2 [17], `Cc1cc(Nc2cc3ncccc3c(N[C@@H]3C[C@H]4CC[C@@H](C3)N4CCC#N)n2)n[nH]1` [IZENCITINIB] gave an IC50 of 0.02 µM. In the data set with SARS-CoV-2 [21], the EC50 worked out at 0.02 µM.
In [22], `O=C(NOC[C@H](O)CO)c1ccc(F)c(F)c1Nc1ccc(I)cc1F` [MIRDAMETINIB] returned a CC50 of more than 100 µM.
In the case of `Cc1cn(-c2cc(NC(=O)c3ccc(C)c(Nc4nccc(-c5cccnc5)n4)c3)cc(C(F)(F)F)c2)cn1` [NILOTINIB], in the data set on SARS-CoV-2 [16], it took 0.08 µM to reach a half-maximal effect (EC50). Besides, the Vd at […] in [23], in data set [24], in [25] and in data set [26] was 0.55 L/kg each time. The Activity result in the data set on Vero C1008 is “Non-Toxic”.
Turning to `C[C@H](Nc1cc(-c2cnn(C)c2)cc(Nc2cnccn2)n1)c1ccc(F)cc1` [NS-018], in data set [15], the midpoint of inhibition, the IC50, lay at 0.00027 µM.
For `COc1cc(F)c(F)c(Nc2ccc(I)cc2F)c1NS(=O)(=O)C1(C[C@H](O)CO)CC1` [REFAMETINIB], in data set [22], the CC50 is more than 100 µM. Also, it took 0.06 µM to reach half-maximal inhibition in the data set with Influenza A virus [27] (IC50).
For `CNC(=O)c1cc(Oc2ccc(NC(=O)Nc3ccc(Cl)c(C(F)(F)F)c3)c(F)c2)ccn1` [REGORAFENIB], in the data set with Influenza A virus [28], a half-maximal effect (EC50) was put at 0.89 µM. The CC50 in data set [22] amounted to 14.2 µM.
As for `CC(=O)c1c(O)c(C)c(O)c(Cc2c(O)c3c(c(C(=O)/C=C/c4ccccc4)c2O)OC(C)(C)C=C3)c1O` [ROTTLERIN], the response in the data set with Lyssavirus rabies was half-maximal at 1 µM (EC50). This compound also showed a CC50 in data set [29] of 100 µM.
On to `Cn1cnc2c(F)c(Nc3ccc(Br)cc3Cl)c(C(=O)NOCCO)cc21` [SELUMETINIB], for which the 50% effective concentration (EC50) in the data set with Influenza A virus [30] and in the data set on Influenza A virus [27] was 0.75 µM each time. Further, the CC50 in [22] is more than 100 µM.
On to `CC(C)(C)c1cc(/C=C(\C#N)C(N)=S)cc(C(C)(C)C)c1O` [TYRPHOSTIN AG 879], for which the IC50 in data set [31] stood at 1 µM; in the data set with Influenza A virus [19], 10 µM. The Activity in the data set with Influenza A virus [32] is 50%. In data set [22], this compound displayed a CC50 of more than 81 µM.
`CC[C@@H]1CN(C(=O)NCC(F)(F)F)C[C@@H]1c1cnc2cnc3[nH]ccc3n12` [UPADACITINIB] yielded a Kd in data set [33] of 9.9 µM.
In the data set with SARS-CoV-2 [16], `CNC(=O)c1cccc(-c2ccc3c(N4CCOC[C@@H]4C)nc(N4CCOC[C@@H]4C)nc3n2)c1` [VISTUSERTIB] displayed an EC50 of 0.0159 µM. In the data set with Vero C1008, the Activity entry is given as “Non-Toxic”.
